# From patent US5480983A, “Adenosine derivatives, preparation methods and pharmaceutical compositions containing them” (Laboratoires UPSA, priority 1992, dated 1996)
# Legend:
# [1] = Phenylbenzoquinone test (analgesic activity); format: in vivo; conditions: Mus musculus, 1 h; mice; oral, one hour before phenylbenzoquinone i.p.; 5 minutes observation; read-out: Phenylbenzoquinone test 50% inhibitory dose
# Procedure: 2. Phenylbenzoquinone test
# The intraperitoneal injection of phenylbenzoquinone causes twisting and stretching movements in mice. Analgesics prevent or reduce this syndrome, which can be considered as the exteriorization of diffuse abdominal pain.
# A 0.02% solution of phenylbenzoquinone in water is administered in a volume of 1 ml/100 g.
# The products of the Examples are administered orally one hour before the injection of phenylbenzoquinone.
# The stretching and twisting movements are counted for each mouse over an observation period of 5 minutes.
# [2] = target: T1, rat central A2 adenosinergic receptors (Rattus norvegicus, UniProt P30543); test: Binding to adenosine A2 receptors ([3H] NECA displacement); conditions: [3H] NECA 4 nM, n=3; for inhibition at 10 µM: read-out: % displacement of the labeled ligand, A2, 1E-5M; for inhibition at 0.1 µM: read-out: % displacement of the labeled ligand, A2, 1E-7M
# T1 construct: the striatum is removed from each of them (Bruns et al., 1986); from tissue; host or cells: rat striatum, homogenate (membrane preparation)
# Procedure: (§1) The affinity of the products of the Examples for the rat central A1 and A2 adenosinergic receptors is determined by the competitive technique using a radioactive ligand specifically bound either to the A1 receptors ([^3 H] PIA) or to the A2 receptors ([^3 H] NECA).
# Method of studying the A2 receptors Membrane preparation
# After decapitation of the animal, the brain is quickly removed and washed in cold isotonic solution. The two hemispheres are separated and the striatum is removed from each of them (Bruns et al., 1986), weighed and introduced into a polyallomer tube containing 10 volumes of cold homogenization buffer. The tissue is homogenized with an Ultra-Turrax for 30 seconds (3 times 10 seconds with 10-second intervals, 70% of the maximum speed). The ground material is centrifuged at 50,000 g (≈20,500 rpm) for 10 minutes at 4° C.
# The residue obtained is resuspended in 10 volumes of homogenization buffer using a Vortex and homogenized with the Ultra-Turrax (5 to 10 seconds, 70% of the maximum speed).
# Adenosine deaminase is then added at a rate of 1 U/ml, i.e. 1 μl/ml of homogenate, using a 10 μl Hamilton syringe. The homogenate treated in this way is shaken at room temperature for 30 minutes.
# When the incubation is complete, the homogenate is centrifuged at 50,000 g (≈20,500 rpm) for 10 minutes at 4° C.
# The residue is taken up with 5 volumes of cold homogenization buffer and passed through the Ultra-Turrax (2 times 10 seconds with a 10-second interval, 70% of the maximum speed) and the homogenate prepared in this way is finally frozen at -70° C. Competitive test
# After the homogenate has been thawed at room temperature, 15 volumes of incubation buffer are added. The homogenate is shaken on a Vortex, passed through a Potter mill (6 to-and-fro movements, speed 6), diluted to 1/10 in incubation buffer and finally placed in a water bath thermostated at 4° C., with shaking, until the end of the experiment.
# (§2) 50 μl of [^3 H] NECA at 160 nM, i.e. 4 nM in the final reaction medium allowing for the 1/40 dilution, and 50 μl of the product of the Example at the concentrations considered (10^-5 M and 10^-7 M) are introduced into the reaction tubes. The reaction is initiated by the addition of 1 ml of homogenate and 900 μl of incubation buffer. The procedure is similar for all the compounds studied.
# The tubes are shaken and incubated in a water bath at 25° C. for 60 minutes. When the incubation is complete, the contents of the tubes are filtered on Whatman GF/B paper. Each tube is washed twice with 2 ml of rinsing buffer and then the filters themselves are rinsed with 3 ml of this same buffer before being transferred to counting flasks.
# 10 ml of liquid scintillator (Ready Solv HP/b, Beckman) are added to all the flasks. These are shaken and stored in a refrigerator overnight. The radioactivity is determined in a liquid scintillation counter.
# (§3) 3 tests are performed for each concentration studied. The non-specific binding of the [^3 H] NECA is determined by measuring the amount of radioactivity retained on the filter in the presence of 5 μM N-ethylcarboxamidoadenosine (NECA). The value of the non-specific binding is systematically subtracted from that of the tests.
# (§4) The results are expressed for each product in the form of the percentage displacement (n=3) of the labeled radioligand at concentrations of 10^-5 M and 10^-7 M.
# [3] = target: T2, rat central A1 adenosinergic receptors (Rattus norvegicus, UniProt P25099); test: Binding to adenosine A1 receptors ([3H] PIA displacement); conditions: [3H] PIA 2.5 nM, n=3; for inhibition at 10 µM: read-out: % displacement of the labeled ligand, A1, 1E-5M; for inhibition at 0.1 µM: read-out: % displacement of the labeled ligand, A1, 1E-7M
# T2 construct: After the animal has been sacrificed by decapitation, the brain is quickly removed and washed in cold isotonic solution; from tissue; host or cells: rat brain, membrane preparation from the two hemispheres
# T2 sequence (P25099 1-326): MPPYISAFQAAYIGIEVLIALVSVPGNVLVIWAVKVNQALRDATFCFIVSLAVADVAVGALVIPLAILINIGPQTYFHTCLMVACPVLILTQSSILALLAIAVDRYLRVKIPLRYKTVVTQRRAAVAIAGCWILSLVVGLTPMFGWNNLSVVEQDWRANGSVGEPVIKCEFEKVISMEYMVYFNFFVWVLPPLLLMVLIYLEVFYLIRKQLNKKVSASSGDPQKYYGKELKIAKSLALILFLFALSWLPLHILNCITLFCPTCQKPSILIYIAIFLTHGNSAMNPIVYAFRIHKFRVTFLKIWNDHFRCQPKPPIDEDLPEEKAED
# Procedure: as §1
# After the animal has been sacrificed by decapitation, the brain is quickly removed and washed in cold isotonic solution. The two hemispheres are separated and weighed and each of them is introduced into a polyallomer tube containing 25 volumes of cold homogenization buffer. Homogenization is effected using an Ultra-Turrax for 30 seconds (3 times 10 seconds with 10-second intervals, 70% of the maximum speed). The ground material obtained is centrifuged at 1000 g (≈3000 rpm) for 10 minutes at 4° C.
# The supernatant is centrifuged again at 48,000 g (≈20,000 rpm) for 20 minutes at 4° C.
# When this step is complete, the residue is taken up with 4 volumes of homogenization buffer, resuspended using a Vortex and homogenized with the Ultra-Turrax. Adenosine deaminase is then added at a rate of 1 U/ml, i.e. 1 μl/ml of homogenate, using a 10 μl Hamilton syringe.
# After this treatment, the homogenate is shaken for 30 minutes at room temperature and then centrifuged at […] (≈20,000 rpm) for 30 minutes at 4° C.
# The residue obtained is resuspended in 10 volumes of homogenization buffer and passed through the Ultra-Turrax for 20 seconds (2 times 10 seconds with a 10-second interval, 70% of the maximum speed).
# The homogenate prepared in this way is used for the competitive tests. It is kept at 4° C. if the studies take place the same day, or stored at -20° C. in the form of 10 ml aliquots.
# After the homogenate has been thawed at room temperature, it is passed through a Potter mill (6 manual to-and-fro movements, speed 6), diluted to 2/5 in incubation buffer and placed in a water bath thermostated at 4° C., with shaking, until the end of the experiment.
# as §2, with “H] PIA” for “H] NECA”, “at 100” for “at 160”, “i.e. 2.5” for “i.e. 4”, “considered ([…]” for “considered (10^-5”, “is identical” for “is similar”, “the […]” for “the compounds”
# The tubes are shaken and incubated in a water bath at 20° C. for 30 minutes. When the incubation is complete, the contents of the tubes are filtered on Whatman GF/B paper. Each tube is washed twice with 2 ml of rinsing buffer and then the filters themselves are rinsed with 3 ml of this same buffer.
# The filters are then transferred to counting flasks and 10 ml of liquid scintillator (Ready Solv HP/b, Beckman) are added.
# After they have been shaken, the flasks are stored in a refrigerator overnight and the radio-activity is then determined in a liquid scintillation counter.
# as §3, with “PIA” for “NECA”, “assessed” for “determined”, “10^-5 M phenylisopropyladenosine (PIA).” for “5 μM N-ethylcarboxamidoadenosine (NECA).”
# as §4
# T1 sequence (P30543 whole entry): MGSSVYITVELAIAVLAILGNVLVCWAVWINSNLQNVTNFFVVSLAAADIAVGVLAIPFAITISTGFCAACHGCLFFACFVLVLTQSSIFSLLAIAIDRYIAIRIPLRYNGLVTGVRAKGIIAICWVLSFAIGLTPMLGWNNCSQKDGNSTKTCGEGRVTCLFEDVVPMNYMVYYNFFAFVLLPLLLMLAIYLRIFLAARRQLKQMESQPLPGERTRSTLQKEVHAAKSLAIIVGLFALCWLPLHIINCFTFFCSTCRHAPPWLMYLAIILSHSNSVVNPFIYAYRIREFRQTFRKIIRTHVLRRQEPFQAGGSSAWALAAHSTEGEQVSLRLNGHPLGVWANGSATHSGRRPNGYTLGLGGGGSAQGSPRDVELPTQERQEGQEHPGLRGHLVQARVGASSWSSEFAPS
Compound,inhibition at 10 µM ([2]; 1E-5M),inhibition at 0.1 µM ([2]; 1E-7M),inhibition at 10 µM ([3]; 1E-5M),inhibition at 0.1 µM ([3]; 1E-7M),"% displacement of the labeled ligand, A2, 1E-5M ([2]; 1E-5M, 10 µM)","% displacement of the labeled ligand, A2, 1E-7M ([2]; 1E-7M, 0.1 µM)","% displacement of the labeled ligand, A1, 1E-5M ([3]; 1E-5M, 10 µM)","% displacement of the labeled ligand, A1, 1E-7M ([3]; 1E-7M, 0.1 µM)",ED50 [1]
"Cc1ccc(Cn2cc(CCNc3ncnc4c3ncn4[C@@H]3O[C@H](C(=O)NC4CC4)[C@@H](O)[C@H]3O)c3ccccc32)cc1 [Example 66, β-D-Ribofuranuronamido-N-cyclopropyl-1-deoxy-1-[6-[[2-[1-(4-methylbenzyl)indol-3-yl]ethyl]amino]-9H-purin-9-yl]]",89%,21%,97%,37%,,,,,3 mg/kg
"Cc1ccc(C)c(Cn2cc(CC(C)Nc3ncnc4c3ncn4[C@@H]3O[C@H](C(=O)NC4CC4)[C@@H](O)[C@H]3O)c3ccccc32)c1 (stereo partly drawn) [Example 92, β-D-Ribofuranuronamido-N-cyclopropyl-1-deoxy-1-[6-[[1-[1-(2,5-dimethylbenzyl)indol-3-yl]propan-2-yl]amino]-9H-purin-9-yl]]",84%,9%,96%,21%,,,,,3.6 mg/kg
"Cc1ccc(Cn2cc(CCNc3ncnc4c3ncn4[C@@H]3O[C@H](C(=O)NC4CC4)[C@@H](O)[C@H]3O)c3ccccc32)cc1C [Example 67, β-D-Ribofuranuronamido-N-cyclopropyl-1-deoxy-1-[6-[[2-[1-(3,4-dimethylbenzyl)indol-3-yl]ethyl]amino]-9H-purin-9-yl]]",83%,13%,96%,29%,,,,,3 mg/kg
"CN(C)CCn1cc(CCNc2ncnc3c2ncn3[C@@H]2O[C@H](C(=O)NC3CC3)[C@@H](O)[C@H]2O)c2ccccc21 [Example 70, β-D-Ribofuranuronamido-N-cyclopropyl-1-deoxy-1-[6-[[2-[1-(2-N,N-dimethylaminoethyl)indol-3-yl]ethyl]amino]-9H-purin-9-yl]]",94%,44%,100%,91%,,,,,
"CC(C)n1cc(CCNc2ncnc3c2ncn3[C@@H]2O[C@H](C(=O)NC3CC3)[C@@H](O)[C@H]2O)c2ccccc21 [Example 65, β-D-Ribofuranuronamido-N-cyclopropyl-1-deoxy-1-[6-[[2-[1-isopropylindol-3-yl]-ethyl]amino]-9H-purin-9-yl]]",91%,14%,87%,4%,,,,,0.3 mg/kg
"O=C(NC1CC1)[C@H]1O[C@@H](n2cnc3c(NCCc4cn(C5CCCC5)c5ccccc45)ncnc32)[C@H](O)[C@@H]1O [Example 64, β-D-Ribofuranuronamido-1-[6-[[2-[1-cyclopentylindol-3-yl]ethyl]amino]-9H-purin-9-yl]-N-cyclopropyl-1-deoxy]",90%,28%,96%,21%,,,,,0.3 mg/kg

# Further lines, with some results ahead:
inhibition at 10 µM ([2]; 1E-5M),inhibition at 0.1 µM ([2]; 1E-7M),inhibition at 10 µM ([3]; 1E-5M),inhibition at 0.1 µM ([3]; 1E-7M),"% displacement of the labeled ligand, A2, 1E-5M ([2]; 1E-5M, 10 µM)","% displacement of the labeled ligand, A2, 1E-7M ([2]; 1E-7M, 0.1 µM)","% displacement of the labeled ligand, A1, 1E-5M ([3]; 1E-5M, 10 µM)","% displacement of the labeled ligand, A1, 1E-7M ([3]; 1E-7M, 0.1 µM)",Compound,ED50 [1]
90%,19%,98%,61%,,,,,"COCCn1cc(CCNc2ncnc3c2ncn3[C@@H]2O[C@H](C(=O)NC3CC3)[C@@H](O)[C@H]2O)c2ccccc21 [Example 63, β-D-Ribofuranuronamido-N-cyclopropyl-1-deoxy-1-[6-[[2-[1-(2-methoxyethyl)indol-3-yl]ethyl]amino]-9H-purin-9-yl]]",10 mg/kg
90%,12%,93%,63%,,,,,"O=C(NC1CC1)[C@H]1O[C@@H](n2cnc3c(NCCc4cn(CCN5CCOCC5)c5ccccc45)ncnc32)[C@H](O)[C@@H]1O [Example 69, β-D-Ribofuranuronamido-N-cyclopropyl-1-deoxy-1-[6-[[2-[1-(2-N-morpholinoethyl)indol-3-yl]ethyl]amino]-9H-purin-9-yl]]",
,,,,92%,46%,99%,94%,"O=C(NC1CC1)[C@H]1O[C@@H](n2cnc3c(NCCc4cn(CCN5CCCCC5)c5ccccc45)ncnc32)[C@H](O)[C@@H]1O [Example 71 (base), β-D-Ribofuranuronamido-N-cyclopropyl-1-deoxy-1-[6-[[2-[1-(2-N-piperidinoethyl)indol-3-yl]ethyl]amino]-9H-purin-9-yl]]",
